Assay results: US8883438B2, “Method for diagnosing cell proliferation disorders having a neoactive mutation at residue 97 of isocitrate dehydrogenase 1” (Agios Pharmaceuticals, Inc., priority 2009, dated 2014)

Tests used:
IDH1 G97D = target: T1, IDH1 G97D (Homo sapiens, UniProt O75874, G97D); test: IDH1 G97D inhibition assay (NADPH/aKG, diaphorase/resazurin fluorescence readout); type: biochemical; details: 50 minutes at room temperature
T1 construct: Oligo nucleotides were designed to PCR out the coding region of IDH1 with NdeI at the 5′ end and XhoI at the 3′; Ser-Leu-Glu junction (stop codon changed to Ser, then Leu-Glu); made in house; host or cells: E. coli Rosetta
T1 sequence (O75874 whole entry G97D): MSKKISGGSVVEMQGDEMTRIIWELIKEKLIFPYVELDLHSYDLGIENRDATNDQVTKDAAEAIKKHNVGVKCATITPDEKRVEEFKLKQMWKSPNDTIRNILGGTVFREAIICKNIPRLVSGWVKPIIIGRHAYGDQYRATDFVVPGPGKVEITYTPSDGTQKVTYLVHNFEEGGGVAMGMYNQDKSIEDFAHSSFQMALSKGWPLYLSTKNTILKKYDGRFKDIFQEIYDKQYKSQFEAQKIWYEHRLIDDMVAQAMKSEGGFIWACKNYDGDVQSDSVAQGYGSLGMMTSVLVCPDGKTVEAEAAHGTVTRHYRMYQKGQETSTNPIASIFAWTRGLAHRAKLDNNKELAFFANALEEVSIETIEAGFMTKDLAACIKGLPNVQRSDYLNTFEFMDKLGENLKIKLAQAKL
Protocol: Assays were conducted in a standard 384-well plate in a reaction volume of 76 uL assay buffer (150 mM NaCl, 10 mM MgCl2, 20 mM Tris pH 7.5, 0.05% bovine serum albumin, 2 mM beta-mercaptoethanol) as follows: To 25 uL of substrate mix (4 uM NADPH, 1 mM aKG), 1 uL of test compound in DMSO was added. The plate was centrifuged briefly, and then 25 ul of enzyme mix was added (0.1 ug/mL ICDH1 G97D) followed by a brief centrifugation and shake at 100 RPM. The reaction was incubated for 50 minutes at room temperature, then 25 ul of detection mix (30 uM resazurin, 36 ug/ml diaphorase) was added, and the mixture further incubated for 5 minutes at room temperature. The activity readout as a result of the conversion of resazurin to resorufin was detected by fluorescent spectroscopy at excitation 544 nm and emission 590 nm (c/o 590 nm).

glioblastoma multiforme = details: persons newly diagnosed with glioblastoma multiforme; cited from earlier work

SMILES | IC50 (IDH1 G97D) | tolerability (glioblastoma multiforme)
CCCCC1=NN2C(=N)/C(=C/c3ccc(-c4ccc([NH2+][O-])cc4Cl)o3)C(=O)N=C2S1 | 1 to 5 µM | –
N#C/C(=C\c1ccc(-c2cc([N+](=O)[O-])ccc2O)o1)c1nc2ccccc2[nH]1 | 1 to 5 µM | –
Cn1nnc2c(C(N)=O)ncn2c1=O [temozolomide, Temozolomide] | – | well tolerated

Second part, led by results:

IC50 (IDH1 G97D) | SMILES | tolerability (glioblastoma multiforme)
5 to 10 µM | O=C1NC(=S)S/C1=C\c1ccc(-c2ccc(N3CCOCC3)c([N+](=O)[O-])c2)o1 | –
1 to 5 µM | O=C1/C(=C/c2ccc(F)cc2)C(CSc2ccc(Cl)cc2)=NN1c1nc2ccccc2s1 | –
